Data taken from article PMC11742723, “The clinical-stage drug BTZ-043 accumulates in murine tuberculosis lesions and efficiently acts against Mycobacterium tuberculosis” (Nature Communications, 2025).

Assay: MALDI imaging and penetration analysis in centrally necrotizing granulomas
Settings: for BTZ-043 distribution in granulomas by MALDI imaging: IL-13tg mice

SMILES: C[C@H]1COC2(CCN(c3nc(=O)c4cc(C(F)(F)F)cc([N+](=O)[O-])c4s3)CC2)O1 [BTZ-043]
- BTZ-043 distribution in granulomas by MALDI imaging (0.5 h and 2 h after the last administration): higher intensity in the layer of foamy macrophages than in the surrounding tissue and a low intensity in the necrotic center
- BTZ-043 distribution in granulomas by MALDI imaging (4 h after the last administration): evenly distributed across the granuloma, including a full penetration of the necrotic center
- BTZ-043 distribution in granulomas by MALDI imaging (8 h post-dose): still detected in the cellular compartment and the necrotic center of the lesion
- BTZ-043 distribution in lung section by MALDI imaging (IL-13tg mouse, 2 h post-dose, 10 µm pixel size): higher abundance in the granuloma areas
- Mean intensity (Left Granuloma, Distance 5 μm): 139.49
- Mean intensity (Left Granuloma, Distance 15 μm): 156.7
- Mean intensity (Left Granuloma, Distance 25 μm): 198.34
- Mean intensity (Left Granuloma, Distance 455 μm): 231.69
- Mean intensity (Left Granuloma, Distance 465 μm): 177.77
- Mean intensity (Left Granuloma, Distance 475 μm): 149.66
- Mean intensity (Left Granuloma, Distance 485 μm): 141.47
- Mean intensity (Left Granuloma, Distance 495 μm): 108.37
- Mean intensity (Left Granuloma, Distance -5 μm): 119.73
- Mean intensity (Left Granuloma, Distance -15 μm): 101.17
- Mean intensity (Left Granuloma, Distance -25 μm): 94.994
- Mean intensity (Left Granuloma, Distance -35 μm): 92.517
- Mean intensity (Left Granuloma, Distance -45 μm): 79.172
- Mean intensity (Left Granuloma, Distance -55 μm): 80.027
- Mean intensity (Left Granuloma, Distance -65 μm): 75.696
- Mean intensity (Left Granuloma, Distance -75 μm): 68.605
- Mean intensity (Left Granuloma, Distance -85 μm): 57.747
- Mean intensity (Left Granuloma, Distance -95 μm): 55.134
- Mean intensity (Left Granuloma, Distance -105 μm): 53.791
- Mean intensity (Left Granuloma, Distance -115 μm): 50.259
- Mean intensity (Left Granuloma, Distance -125 μm): 46.467
- Mean intensity (Left Granuloma, Distance -135 μm): 47.503
- Mean intensity (Left Granuloma, Distance -145 μm): 45.623
- Mean intensity (Left Granuloma, Distance -155 μm): 45.907
- Mean intensity (Left Granuloma, Distance -165 μm): 44.835
- Mean intensity (Left Granuloma, Distance -175 μm): 48.409
- Mean intensity (Left Granuloma, Distance -185 μm): 51.437
- Mean intensity (Left Granuloma, Distance -195 μm): 54.977
- Mean intensity (Left Granuloma, Distance -205 μm): 58.044
- Mean intensity (Left Granuloma, Distance -215 μm): 59.813
- Mean intensity (Left Granuloma, Distance -225 μm): 62.899
- Mean intensity (Left Granuloma, Distance -235 μm): 60.823
- Mean intensity (Left Granuloma, Distance -245 μm): 67.44
- Mean intensity (Left Granuloma, Distance -255 μm): 69.7
- Mean intensity (Left Granuloma, Distance -265 μm): 69.289
- Mean intensity (Left Granuloma, Distance -275 μm): 70.893
- Mean intensity (Left Granuloma, Distance -285 μm): 72.505
- Mean intensity (Left Granuloma, Distance -295 μm): 79.349
- Mean intensity (Left Granuloma, Distance -305 μm): 78.856
- Mean intensity (Left Granuloma, Distance -315 μm): 77.402
- Mean intensity (Left Granuloma, Distance -325 μm): 81.899
- Mean intensity (Left Granuloma, Distance -335 μm): 87.061
- Mean intensity (Left Granuloma, Distance -345 μm): 86.34
- Mean intensity (Left Granuloma, Distance -355 μm): 78.295
- Mean intensity (Left Granuloma, Distance -365 μm): 77.954
- Mean intensity (Left Granuloma, Distance -375 μm): 75.379
- Mean intensity (Left Granuloma, Distance -385 μm): 74.434
- Mean intensity (Left Granuloma, Distance -395 μm): 71.834
- Mean intensity (Left Granuloma, Distance -405 μm): 68.248
- Mean intensity (Left Granuloma, Distance -415 μm): 72.627
- Mean intensity (Left Granuloma, Distance -425 μm): 59.053
- Mean intensity (Left Granuloma, Distance -435 μm): 63.125
- Mean intensity (Left Granuloma, Distance -445 μm): 62.385
- Mean intensity (Right Granuloma, Distance 5 μm): 197.71
- Mean intensity (Right Granuloma, Distance 15 μm): 215.58
- Mean intensity (Right Granuloma, Distance -5 μm): 125.01
- Mean intensity (Right Granuloma, Distance -15 μm): 127.96
- Mean intensity (Right Granuloma, Distance -25 μm): 106.25
- Mean intensity (Right Granuloma, Distance -35 μm): 89.663
- Mean intensity (Right Granuloma, Distance -45 μm): 81.533
- Mean intensity (Right Granuloma, Distance -55 μm): 68.214
